The results in this text go back to patent US7429291B2, “Print ink containing a plurality of fluorescent coloring materials and inkjet recording method” (Canon Kabushiki Kaisha, priority 2003, dated 2008).

Series [1] is described as follows: Light absorption spectrum of coloring material. Format: physicochemical. As to the method: Next, the present invention will be described more concretely with reference to the examples and the reference examples. Here, measured values obtained with pure-water diluents of coloring materials were used for an absorption wavelength region, a maximum absorption wavelength region, and a fluorescence wavelength region. Using an absorption spectrometer, absorption wavelengths were measured.
A diluent was prepared such that the absorbance thereof was in the range of 0.5 to 0.7. A higher region from a base line as an absorption peak of the coloring material was defined as an absorption wavelength region, and the peak value was defined as a maximum absorption wavelength region. In addition, for fluorescence wavelengths, the measurement conditions were defined such that the fluorescence intensities would not exceed the measurement threshold value. Then, the measurement of fluorescence wavelengths was performed by using the diluent used in the measurement of absorbance and by fixing the excitation wavelengths of the first and second coloring materials at predetermined wavelengths. A region higher than the base line was defined as a fluorescence emission wavelength region.
The absorption wavelength regions of the first and second coloring materials were measured using the spectrophotometer U-3200, manufactured by Hitachi Ltd., after the sample was diluted with pure water 100,000 fold. The absorption wavelength region of the first coloring material ranged from 450 to 620 nm both inclusive, and the maximum absorption wavelength thereof was 565 nm. In addition, the absorption wavelength region of the second coloring material ranged from 300 to 450 nm both inclusive, and the maximum absorption wavelength thereof was 372 nm.

Series [2] in a line: Fluorescence emission and excitation spectra of coloring material in evaporated ink (FP-750). The conditions noted are these: excitation at 254 nm. In kind it is physicochemical. From the text:
Hereinafter, the print ink of the present invention will be described with reference to the drawings. Unless noted as a recorded image or a printed matter, the results are with an evaporated ink in which water was removed by evaporation and coloring materials are dispersed in an organic solvent. The print ink according to each embodiment of the present invention contains a first fluorescent coloring material that emits fluorescence of a predetermined wavelength that is used for measurement or determination, with excitation at a predetermined excitation wavelength, a second fluorescent coloring material that emits fluorescence with excitation at the same excitation wavelength, and a liquid medium for solving or dispersing these materials therein.
Aspect 1 is characterized in that the fluorescence emission wavelength region of the second fluorescent coloring material covers at least the peak wavelength range of the excitation spectrum of the first fluorescent coloring material measured for emission at 600 nm (see FIG. 2) and/or the absorption wavelengths in the visible region of the first fluorescent coloring material (see the bottom of FIG. 6). […] Therefore, in FIG. 2, when the predetermined fluorescence wavelength of AR52 is 600 nm (the predetermined excitation wavelength: 254 nm), the peak wavelength range thereof is from 430 nm to 600 nm both inclusive. […]

The mark [3] stands for this setting: absorption spectrum of the figures, normal ink.

Consider `CCN(CC)c1ccc2c(-c3ccc(S(=O)(=O)[O-])cc3S(=O)(=O)[O-])c3ccc(=[N+](CC)CC)cc-3oc2c1.[Na+]` [C.I. Acid Red 52], for which, in series [1] (Example 1, diluted with pure water 100,000 fold, spectrophotometer U-3200), the maximum absorption wavelength is given as 565 nm. Also, in series [1] (setting [3]), the “absorption peak wavelength in visible region” value is listed as 565 nm. In addition, the “fluorescence emission peak wavelength” value in series [2] is 600 nm.

Consider `O=C([O-])c1ccccc1-c1c2ccc(=O)cc-2oc2cc([O-])ccc12.[Na+].[Na+]` [AY73, C.I. Acid Yellow 73], for which, in series [1] (setting [3]), the “absorption band in visible region” value is reported as not above 525 nm and the “absorption peak wavelength in visible region” value is 490 nm. Moreover, the “fluorescence emission peak wavelength” value in series [2] is 530 nm.
